Reference: the supplement of paper PMC10307832

What was measured:
Assay in all cases: relative viability (nuclei count vs DMSO), 5 days (fraction); higher = more cells survive
[1] = test system: BEN
Method in brief: (§1)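 Lung cancer cell lines, seeded in 1536-well plates, were treated the following day by pin tool with a single drug or with five library-drug doses (not always all listed) in √10 steps on top of a fixed anchor-drug dose. Cells were fixed and nuclei stained in one step after 5 days, and nuclei were counted. Relative viability is the nuclei count for treated wells divided by that for vehicle wells, reported as medians of duplicate plates.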

[2] = test system: ChaGo-K-1
Method in brief: as §1

[3] = test system: LC-2-ad
Method in brief: as §1

[4] = test system: LCLC-97TM1
Method in brief: as §1

[5] = test system: LK-2
Method in brief: as §1

[6] = test system: LU99A
Method in brief: as §1

[7] = test system: LXF-289
Method in brief: as §1

[8] = test system: NCI-H1355
Method in brief: as §1

[9] = test system: NCI-H1651
Method in brief: as §1

[10] = test system: NCI-H1666
Method in brief: as §1

[11] = test system: NCI-H1944
Method in brief: as §1

[12] = test system: NCI-H1975
Method in brief: as §1

[13] = test system: NCI-H2087
Method in brief: as §1

[14] = test system: NCI-H2342
Method in brief: as §1

[15] = test system: NCI-H358
Method in brief: as §1

[16] = test system: NCI-H596
Method in brief: as §1

[17] = test system: NCI-H650
Method in brief: as §1

[18] = test system: NCI-H661
Method in brief: as §1

[19] = test system: NCI-H838
Method in brief: as §1

[20] = test system: PC-3 [JPC-3]
Method in brief: as §1

[21] = test system: SK-MES-1
Method in brief: as §1

Q: What does the source list for O=c1cc(N2CCOCC2)oc2c(-c3cccc4c3sc3ccccc34)cccc12 + CCNC(=O)c1noc(-c2cc(C(C)C)c(O)cc2O)c1-c1ccc(CN2CCOCC2)cc1 [Luminespib] (partner 0.01 µM)?
A: relative viability ([1]; first compound 0.01 µM): 0.298; relative viability ([1]; first compound 0.03162 µM): 0.359; relative viability ([1]; first compound 0.1 µM): 0.236; relative viability ([1]; first compound 0.3162 µM): 0.497; relative viability ([1]; first compound 1 µM): 0.318; relative viability ([2]; first compound 0.01 µM): 0.689; relative viability ([2]; first compound 0.03162 µM): 0.682; relative viability ([2]; first compound 0.1 µM): 0.714; relative viability ([2]; first compound 0.3162 µM): 0.582; relative viability ([2]; first compound 1 µM): 0.689; relative viability ([3]; first compound 0.01 µM): 1.04; relative viability ([3]; first compound 0.03162 µM): 1.12; relative viability ([3]; first compound 0.1 µM): 0.978; relative viability ([3]; first compound 0.3162 µM): 1.03; relative viability ([3]; first compound 1 µM): 1.13; relative viability ([4]; first compound 0.01 µM): 0.621; relative viability ([4]; first compound 0.03162 µM): 0.796; relative viability ([4]; first compound 0.1 µM): 0.827; relative viability ([4]; first compound 0.3162 µM): 0.759; relative viability ([4]; first compound 1 µM): 0.728; relative viability ([5]; first compound 0.01 µM): 0.181; relative viability ([5]; first compound 0.03162 µM): 0.217; relative viability ([5]; first compound 0.1 µM): 0.198; relative viability ([5]; first compound 0.3162 µM): 0.176; relative viability ([5]; first compound 1 µM): 0.139; relative viability ([6]; first compound 0.01 µM): 0.266; relative viability ([6]; first compound 0.03162 µM): 0.23; relative viability ([6]; first compound 0.1 µM): 0.232; relative viability ([6]; first compound 0.3162 µM): 0.267; relative viability ([6]; first compound 1 µM): 0.183; relative viability ([7]; first compound 0.01 µM): 0.646; relative viability ([7]; first compound 0.03162 µM): 0.657; relative viability ([7]; first compound 0.1 µM): 0.773; relative viability ([7]; first compound 0.3162 µM): 0.752; relative viability ([7]; first compound 1 µM): 0.714; relative viability ([8]; first compound 0.01 µM): 0.815; relative viability ([8]; first compound 0.03162 µM): 0.708; relative viability ([8]; first compound 0.1 µM): 0.669; relative viability ([8]; first compound 0.3162 µM): 0.728; relative viability ([8]; first compound 1 µM): 0.688; relative viability ([9]; first compound 0.01 µM): 0.777; relative viability ([9]; first compound 0.03162 µM): 0.736; relative viability ([9]; first compound 0.1 µM): 0.824; relative viability ([9]; first compound 0.3162 µM): 0.712; relative viability ([9]; first compound 1 µM): 0.807; relative viability ([10]; first compound 0.01 µM): 0.889; relative viability ([10]; first compound 0.03162 µM): 1.01; relative viability ([10]; first compound 0.1 µM): 0.995; relative viability ([10]; first compound 0.3162 µM): 0.969; relative viability ([10]; first compound 1 µM): 0.93; relative viability ([11]; first compound 0.01 µM): 0.785; relative viability ([11]; first compound 0.03162 µM): 0.758; relative viability ([11]; first compound 0.1 µM): 0.687; relative viability ([11]; first compound 0.3162 µM): 0.728; relative viability ([11]; first compound 1 µM): 0.749; relative viability ([12]; first compound 0.01 µM): 0.198; relative viability ([12]; first compound 0.03162 µM): 0.242; relative viability ([12]; first compound 0.1 µM): 0.202; relative viability ([12]; first compound 0.3162 µM): 0.271; relative viability ([12]; first compound 1 µM): 0.227; relative viability ([13]; first compound 0.01 µM): 0.148; relative viability ([13]; first compound 0.03162 µM): 0.146; relative viability ([13]; first compound 0.1 µM): 0.173; relative viability ([13]; first compound 0.3162 µM): 0.237; relative viability ([13]; first compound 1 µM): 0.169; relative viability ([14]; first compound 0.01 µM): 0.667; relative viability ([14]; first compound 0.03162 µM): 0.58; relative viability ([14]; first compound 0.1 µM): 0.696; relative viability ([14]; first compound 0.3162 µM): 0.586; relative viability ([14]; first compound 1 µM): 0.742; relative viability ([15]; first compound 0.01 µM): 0.235; relative viability ([15]; first compound 0.03162 µM): 0.397; relative viability ([15]; first compound 0.1 µM): 0.33; relative viability ([15]; first compound 0.3162 µM): 0.229; relative viability ([15]; first compound 1 µM): 0.332; relative viability ([16]; first compound 0.01 µM): 1.05; relative viability ([16]; first compound 0.03162 µM): 0.917; relative viability ([16]; first compound 0.1 µM): 0.877; relative viability ([16]; first compound 0.3162 µM): 1.14; relative viability ([16]; first compound 1 µM): 1.01; relative viability ([17]; first compound 0.03162 µM): 0.846; relative viability ([17]; first compound 0.1 µM): 0.638; relative viability ([17]; first compound 0.3162 µM): 0.917; relative viability ([17]; first compound 1 µM): 0.813; relative viability ([18]; first compound 0.01 µM): 0.86; relative viability ([18]; first compound 0.03162 µM): 0.952; relative viability ([18]; first compound 0.1 µM): 0.948; relative viability ([18]; first compound 0.3162 µM): 0.943; relative viability ([18]; first compound 1 µM): 0.888; relative viability ([19]; first compound 0.01 µM): 0.347; relative viability ([19]; first compound 0.03162 µM): 0.362; relative viability ([19]; first compound 0.1 µM): 0.406; relative viability ([19]; first compound 0.3162 µM): 0.294; relative viability ([19]; first compound 1 µM): 0.287; relative viability ([20]; first compound 0.01 µM): 0.711; relative viability ([20]; first compound 0.03162 µM): 0.694; relative viability ([20]; first compound 0.1 µM): 0.689; relative viability ([20]; first compound 0.3162 µM): 0.695; relative viability ([20]; first compound 1 µM): 0.634; relative viability ([21]; first compound 0.01 µM): 0.712; relative viability ([21]; first compound 0.03162 µM): 0.767; relative viability ([21]; first compound 0.1 µM): 0.736; relative viability ([21]; first compound 0.3162 µM): 0.661; relative viability ([21]; first compound 1 µM): 0.741
